# Tests used:
# Type in all cases: cell-based, human
# RASSF1A = experiment: RT-PCR of RASSF1A expression in cancer cells
# Procedure: FIGS. 1A-1D. Mahanine induces RASSF1A in prostate and other cancer cells. FIG. 1A: Microarray analyses of PC3 cells treated with ([…] (+) or vehicle (−) for 2 days, RNA was extracted and microarray analysis was performed. FIG. 1B: RT-PCR data showing the expression of RASSF1A and GAPDH in untreated normal prostate epithelial cells (PrEC) and human prostate cancer cells (PC3). FIG. 1C: PC3 (left panel) and LNCaP (right panel) cells were treated with 0, 1, 2 and 3 μg/ml mahanine for 3 days. RNA was extracted, and RT-PCR assays were performed to detect RASSF1A and GAPDH expression. Representative photograph from an experiment that was repeated thrice. Quantitative estimations of relative levels of RASSF1A mRNAs (lower panels) were determined by densitometric measurements of RT-PCR gels from three independent experiments after normalization with GAPDH. […]
# (§1) Genes of interest were amplified using 500 ng of total RNA reverse-transcribed to cDNA using a Superscript II kit (Invitrogen) with random hexamers. […] After amplification, PCR products were separated on 1.5% agarose gels and visualized by ethidium bromide fluorescence using the Fuji LAS-1000 Imager. […] Band intensities were quantified by using ImageJ software (NIH, Bethesda, Md.).
# cyclin A1 = experiment: RT-PCR of cyclin A1 mRNA in prostate cancer cells; settings: PC3 or LNCaP cells, mahanine treatment
# cyclin E1 = experiment: RT-PCR of cyclin E1 mRNA in prostate cancer cells; settings: PC3 or LNCaP cells, mahanine treatment
# Procedure: FIG. 5. RASSF1A down-regulates cyclin D1 expression in prostate cancer cells but not other cyclins. […] RNA was extracted, and RT-PCR assays were performed to detect RASSF1A, cyclin A1, B1, D1, E1 and GAPDH mRNAs. Representative photograph from an experiment that was repeated thrice. Quantitative estimations of relative levels of cyclin D1 and RASSF1A mRNAs were determined by densitometric measurements of RT-PCR gels from three independent experiments after normalization with GAPDH.
# as §1, with “hexamers. Human-specific primers were designed using the Primer Quest program and purchased from Integrated DNA Technologies, Inc (Coralville, Iowa).” for “hexamers.”
# cyclin D1 promoter = experiment: Cyclin D1 promoter activity (luciferase) assay; settings: PC3 cells
# Procedure: FIGS. 6A-6B. Mahanine regulates the transcriptional activity of cyclin D1 and RASSF1A siRNA prevents mahanine-induced repression of cyclin D1 transcriptional activity. FIG. 6A: PC3 cells were transfected with 200 ng of full-length cyclin D1 promoter luciferase plasmids (−1745cyclin D1-Luc) or basic luciferase (PA3-Luc) plasmids and 10 ng of Renilla luciferase (pRL-TK-Luc) plasmids. Twenty-four hours after transfection cells were treated with 0, 1 and 2 μg/ml mahanine for 48 hours in normal growth media. FIG. 6B: PC3 cells were transfected with 200 ng of full-length cyclin D1 promoter luciferase plasmids or basic luciferase plasmids and 10 ng of Renilla luciferase (pRL-TK-Luc) plasmids with 200 ng of RASSF1A or RASSF1A siRNA with or without 2 μg/ml mahanine for 48 hours in normal growth media. After treatment, cells were harvested, and luciferase assays were performed. Relative cyclin D1 promoter activity was determined after normalization with Renilla luciferase activity. […]
# Cyclin D1 promoter activity assay: PC3 cells were transfected with 200 ng of cyclin D1 promoter-luciferase (−1745-cyclin D1-Luc) (35) construct using GeneJammer transfection reagent (Stratagene, La Jolla, Calif.). […] After 48 hours, luciferase activity was measured in cell lysates in a microplate luminometer using the Dual Luciferase Assay kit (Promega, Madison, Wis.) according to the manufacturer's protocol. […]
compound,measurement,setting,value
CC(C)=CCC[C@@]1(C)C=Cc2c(c(C)cc3c2[nH]c2cc(O)ccc23)O1 [mahanine],induction of RASSF1A expression (RT-PCR),"RASSF1A; A431, A549, ASPC-1, HT-29, MCF7 and SKOV-3 cells, 2 and 3 μg/ml, 2 days",induced RASSF1A expression
same,induction of RASSF1A gene expression (RT-PCR),"RASSF1A; PC3 cells, 1, 2 and 3 μg/ml, 3 days, dose-dependent",20-80 folds
same,cyclin A1 expression (RT-PCR),cyclin A1,did not alter the expression
same,cyclin E1 expression (RT-PCR),cyclin E1,did not alter the expression
same,cyclin D1 promoter activity,"cyclin D1 promoter; 1 and 2 μg/ml mahanine, 48 hours, P<0.01",decreased cyclin D1 promoter activity in a dose-dependent manner
same,cyclin D1 promoter activity relative to basic vector transfected cells,cyclin D1 promoter; full-length cyclin D1 promoter luciferase construct,approximately 20 fold

# Source: patent US20100130579A1, “CANCER THERAPY” (Georgetown University, priority 2006, published 2010)
